Data: US7109215B2, “Compounds possessing neuronal activity” (Vertex Pharmaceuticals Incorporated, priority 1997, dated 2006)
pKi: −log10 of the molar value. Marks after values point to notes of the source that are not given here.

Biological target: FKBP (Homo sapiens, UniProt P62942)
Experiment: Rotamase inhibition assay (chymotrypsin-coupled PPIase assay)
Format: biochemical
Conditions: 15 nM FKBP, 30 μM Suc-Ala-Leu-Pro-Phe-pNA, 15° C.
Method: Inhibition of FKBP enzyme activity was determined in the PPIase assay described in S. T. Park et al., J. Biol. Chem., 267, pp. 3316–24 (1992), the disclosure of which is herein incorporated by reference. This is a chymotrypsin-coupled assay in which FKBP catalyzes the cis to trans isomerization of the Leu-Pro bond in the peptide substrate Suc-Ala-Leu-Pro-Phe-pNA. The trans form, but not the cis form, is cleavable by chymotrypsin. The release Phe-pNA was monitored by absorbance at 400 nm. Chymotrypsyn cleavage is very rapid and therefore cis-to-trans isomerization is rate-limiting.
Each reaction mix consisted of 0.1 M Tris buffer, pH 7.8, 15 nM FKBP, 30 μM substrate and 0.5 nM to 10 μM of compound to be tested diluted in Me2SO. The mixture was incubated at 15° C. for 5 minutes and then reaction was initiated by addition of chymotrypsin (100 μg/ml final concentration) and followed spectrophotometrically for 5 minutes. Total reaction volume was 1 ml.

Chain of FKBP (P62942 whole entry): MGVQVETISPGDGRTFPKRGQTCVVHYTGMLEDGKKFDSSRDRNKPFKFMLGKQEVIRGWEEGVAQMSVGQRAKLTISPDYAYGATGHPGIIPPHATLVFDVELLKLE

Row | Structure (SMILES) | pKi
1 | CNC(Cc1ccccc1)C(=O)N(C)CCc1ccccn1 (stereo not drawn) [Compound 107] | < 4.60
2 | CNC(Cc1ccccc1)C(=O)N(C)CCCc1cccnc1 (stereo not drawn) [Compound 108] | < 4.60
3 | CN(CCCc1cccnc1)C(=O)C1CCCCN1 (stereo not drawn) [Compound 110] | < 4.60
4 | CN1CCCCC1C(=O)OC(CCCc1ccncc1)CCCc1cccnc1 (stereo not drawn) [Compound 111] | < 4.30
5 | CC(C)CN1CCCCC1C(=O)OC(CCCc1ccncc1)CCCc1cccnc1 (stereo not drawn) [Compound 112] | < 4.30
6 | O=C(OC(CCCc1ccncc1)CCCc1cccnc1)C1CCCCN1Cc1ccncc1 (stereo not drawn) [Compound 113] | < 4.30

Test system: HL60/Vinc cells
Experiment: MDR sensitization (reversal) assay, doxorubicin, XTT viability
Format: cell-based, human
Conditions: compound 2.5 μM, IC50 doxorubicin alone / IC50 doxorubicin plus compound
Method: (§1) We carried out multidrug resistance reversal (MDR) assays using L1210vMDRC.06 or HL60/Vinc cell lines. L1210vMDRC.06 are L1210 mouse leukemia cells transduced with the pHaMDR1/A retrovirus carrying a MDR1 cDNA, as described by Pastan et al., Proc. Natl. Acad. Sci. USA, 85, pp. 4486–4490 (1988). The L1210vMDRC.06 multidrug resistant line is a cell line that has been drug-selected by culturing transfected cells in 0.06 μg/ml colchicine. The HL60/Vinc human promyleocytic leukemia cell line is a multidrug resistant cell line derived from HL60 drug-sensitive parental cells by selection in increasing concentrations of vincristine.
Assays using HL60/Vinc cells were performed by plating cells in 96 well microtiter plates at a concentration of 4×10^4 cells/well. The cells were then exposed to various concentrations of doxorubicin (9 nM to 6.7 μM) in the presence or absence of various compounds of this invention at various concentrations (0.5, 1.0, 2.5, 5.0 or 10 μM) as described in U. Germann et al., Anti-Cancer Drugs, 8, pp. 141–155 (1997). After culturing the cells for 3 days, their viability was quantitated using the XTT dye method to assess mitochondrial function (Roehm et al., supra). Results were expressed as a ratio of the IC50 for doxorubicin alone to the IC50 for doxorubicin plus compound. In all assays the intrinsic antiproliferative or cytotoxicity activity of the MDR inhibitors was also determined for HL60/Vinc cells.

Row | Structure (SMILES) | MDR Ratio
7 | CNC(Cc1ccccc1)C(=O)N(C)CCc1ccccn1 (stereo not drawn) [Compound 107] | 0.9
8 | CNC(Cc1ccccc1)C(=O)N(C)CCCc1cccnc1 (stereo not drawn) [Compound 108] | 0.4
9 | CN(CCCc1cccnc1)C(=O)C1CCCCN1 (stereo not drawn) [Compound 110] | 1.1
10 | CN1CCCCC1C(=O)OC(CCCc1ccncc1)CCCc1cccnc1 (stereo not drawn) [Compound 111] | 1.2
11 | CC(C)CN1CCCCC1C(=O)OC(CCCc1ccncc1)CCCc1cccnc1 (stereo not drawn) [Compound 112] | 2.4
12 | O=C(OC(CCCc1ccncc1)CCCc1cccnc1)C1CCCCN1Cc1ccncc1 (stereo not drawn) [Compound 113] | 2.3

Test system: L1210vMDRC.06 cells
Experiment: as above
Format: cell-based, mouse
Conditions: compound 2.5 μM, IC50 Dox/IC50 Dox+Inhibitor
Method: as §1
Using L1210vMDRC.06, multidrug resistance reversal assays were conducted by plating 1×10^4 cells/well in 96 well microtiter plates and exposing them to a concentration range of doxorubicin (50 nM–10 μM) in the presence or absence of compounds of this invention (0.1, 0.25, 0.5, 1.0, or 2.5 μM) as described in U. Germann et al., Anti-Cancer Drugs, 8, pp. 125–140 (1997). After culture for 3 days, the viability of cells was quantitated using XTT dye to assess mitochondrial function [Roehm et al., J. Immunol. […] Results were determined by comparison of the IC50 for doxorubicin alone to the IC50 for doxorubicin+compound. An MDR ratio was calculated (IC50 Dox/IC50 Dox+Inhibitor) and the integer value used for comparison of compound potencies.

Row | Structure (SMILES) | MDR Ratio
13 | COc1cc(C(=O)CN2CCCCC2C(=O)OC(CCCc2cccnc2)CCCc2cccnc2)cc(OC)c1OC (stereo not drawn) [Compound 105] | 10

Test system: pheochromocytoma PC12 cells
Experiment: Neurite outgrowth quantitation in PC12 cell system
Format: cell-based, rat
Conditions: compound 0.01 nM; 1–5 ng/ml NGF; 72 hours
Method: In order to directly determine the neurotrophic activity of compounds described in this invention, the neurite outgrowth assay was carried out with pheochromocytoma PC12 cells as described by Lyons et al. (1994).
PC12 cells were maintained at 37° C. and 5% CO2 in Dulbecco's modified Eagle's medium (DMEM) supplemented with 10% heat-inactivated horse serum, 5% heat-inactivated fetal bovine serum (FBS), and 1% glutamate.
The cells were then plated at […] in 96 well plates coated with […] rat tail collagen and allowed to attach overnight. The medium was then replaced with DMEM, 2% heat-inactivated horse serum, 1% glutamate, 1–5 ng/ml of NGF (Sigma) and varying concentrations of the compounds of this invention (0.01 nM–10000 nM). The background control culture was administered with […] of NGF alone without compound. Positive control cultures were administered with high concentration of NGF (50 ng/ml). The cells were then incubated at 37° C. at 5% CO2 for 72 hours, fixed with 3% formaldehyde and nerve outgrowth was determined visually on a scale of 0 to 4.

Row | Structure (SMILES) | Neurite outgrowth, visual scale of 0 to 4
14 | CN1CCCCC1C(=O)OC(CCCc1ccncc1)CCCc1cccnc1 (stereo not drawn) [Compound 111] | 4*

Same assay, conditions: compound 0.1 nM; 1–5 ng/ml NGF; 72 hours

Row | Structure (SMILES) | Neurite outgrowth, visual scale of 0 to 4
15 | CN1CCCCC1C(=O)OC(CCCc1ccncc1)CCCc1cccnc1 (stereo not drawn) [Compound 111] | 4*

Same assay, conditions: compound 1 nM; 1–5 ng/ml NGF; 72 hours

Row | Structure (SMILES) | Neurite outgrowth, visual scale of 0 to 4
16 | CN1CCCCC1C(=O)OC(CCCc1ccncc1)CCCc1cccnc1 (stereo not drawn) [Compound 111] | 3*

Same assay, conditions: compound 10 nM; 1–5 ng/ml NGF; 72 hours

Row | Structure (SMILES) | Neurite outgrowth, visual scale of 0 to 4
17 | COc1cc(C(=O)CN2CCCCC2C(=O)OC(CCCc2cccnc2)CCCc2cccnc2)cc(OC)c1OC (stereo not drawn) [Compound 105] | 4
18 | CNC(Cc1ccccc1)C(=O)N(C)CCCc1cccnc1 (stereo not drawn) [Compound 108] | 0
19 | CN1CCCCC1C(=O)OC(CCCc1ccncc1)CCCc1cccnc1 (stereo not drawn) [Compound 111] | 2**
20 | CC(C)CN1CCCCC1C(=O)OC(CCCc1ccncc1)CCCc1cccnc1 (stereo not drawn) [Compound 112] | 3*
21 | O=C(OC(CCCc1ccncc1)CCCc1cccnc1)C1CCCCN1Cc1ccncc1 (stereo not drawn) [Compound 113] | 3*

Same assay, conditions: compound 100 nM; 1–5 ng/ml NGF; 72 hours

Row | Structure (SMILES) | Neurite outgrowth, visual scale of 0 to 4
22 | COc1cc(C(=O)CN2CCCCC2C(=O)OC(CCCc2cccnc2)CCCc2cccnc2)cc(OC)c1OC (stereo not drawn) [Compound 105] | 4
23 | CNC(Cc1ccccc1)C(=O)N(C)CCc1ccccn1 (stereo not drawn) [Compound 107] | 3*
24 | CNC(Cc1ccccc1)C(=O)N(C)CCCc1cccnc1 (stereo not drawn) [Compound 108] | 3
25 | CN(CCCc1cccnc1)C(=O)C1CCCCN1 (stereo not drawn) [Compound 110] | 3*
26 | CN1CCCCC1C(=O)OC(CCCc1ccncc1)CCCc1cccnc1 (stereo not drawn) [Compound 111] | 4**
27 | CC(C)CN1CCCCC1C(=O)OC(CCCc1ccncc1)CCCc1cccnc1 (stereo not drawn) [Compound 112] | 4*
28 | O=C(OC(CCCc1ccncc1)CCCc1cccnc1)C1CCCCN1Cc1ccncc1 (stereo not drawn) [Compound 113] | 4*

Same assay, conditions: compound 1000 nM; 1–5 ng/ml NGF; 72 hours

Row | Structure (SMILES) | Neurite outgrowth, visual scale of 0 to 4
29 | COc1cc(C(=O)CN2CCCCC2C(=O)OC(CCCc2cccnc2)CCCc2cccnc2)cc(OC)c1OC (stereo not drawn) [Compound 105] | 0
30 | CNC(Cc1ccccc1)C(=O)N(C)CCc1ccccn1 (stereo not drawn) [Compound 107] | 0*
31 | CNC(Cc1ccccc1)C(=O)N(C)CCCc1cccnc1 (stereo not drawn) [Compound 108] | 0
32 | CN(CCCc1cccnc1)C(=O)C1CCCCN1 (stereo not drawn) [Compound 110] | 0*
33 | CN1CCCCC1C(=O)OC(CCCc1ccncc1)CCCc1cccnc1 (stereo not drawn) [Compound 111] | 4**
34 | CC(C)CN1CCCCC1C(=O)OC(CCCc1ccncc1)CCCc1cccnc1 (stereo not drawn) [Compound 112] | 3*
35 | O=C(OC(CCCc1ccncc1)CCCc1cccnc1)C1CCCCN1Cc1ccncc1 (stereo not drawn) [Compound 113] | 4*

Same assay, conditions: compound 10000 nM; 1–5 ng/ml NGF; 72 hours

Row | Structure (SMILES) | Neurite outgrowth, visual scale of 0 to 4
36 | CN1CCCCC1C(=O)OC(CCCc1ccncc1)CCCc1cccnc1 (stereo not drawn) [Compound 111] | 4*
